This test has as its system Plasmodium berghei. The test can be described thus: Luciferase/luciferin-expressing antifolate-resistant parasites were used to infect a culture of HepG2 cells that were pre-incubated with compounds. Infected hepatocytes emit light due to the luciferase reaction. Assay results are presented as the percent inhibition of light emission compared to control. […]. The class given is functional. Conditions: sporozoite; for IC90: read-out: LUCIFERASE INFECTION ASSAY - IC90.

Setting [1] is: read-out: LUCIFERASE INFECTION ASSAY - IC50.

As a reminder, the IC50 is the concentration that inhibits the measured activity by half. One may read the IC90 as the point of the concentration-response curve where the effect stands at 90%.

For the compound `Cn1cnc2cnc(Nc3ccc(F)c(Cl)c3)cc21`, the IC90 is more than 10 µM. The IC50 (HEPG2TOX_HILL_SLOPE 2.92, HEPG2TOX_R_SQUARED 0.693, read-out: LUCIFERASE INFECTION ASSAY - IC50) is more than 10 µM.
`O=C(Nc1ccc(SC(F)(F)F)cc1)N1CCN(c2nc(-c3ccccc3)ns2)CC1`: the IC90 is more than 7.09 µM. The IC50 (HEPG2TOX_HILL_SLOPE 7.08, HEPG2TOX_R_SQUARED 0.48, PBLUC_HILL_SLOPE 1.8, PBLUC_R_SQUARED 0.469, read-out: LUCIFERASE INFECTION ASSAY - IC50) is 3.31 µM.
Regarding `CO/N=C(/CS(=O)(=O)c1ccc(OC)cc1)c1ccc(Cl)cc1`, the IC90 was more than 9.33 µM. Where the note is “HEPG2TOX_HILL_SLOPE 2.67, HEPG2TOX_R_SQUARED 0.896, PBLUC_HILL_SLOPE 4.33, PBLUC_R_SQUARED 0.342, read-out: LUCIFERASE INFECTION ASSAY - IC50”, the IC50 was found to be 6.46 µM.
With `COc1ccc(-c2ccnn2-c2nc3ccccc3nc2C(F)(F)F)cc1`, the IC90 stood at 8.87 µM. Besides, the IC50 (FFLUC_HILL_SLOPE 12, FFLUC_R_SQUARED 0.622, HEPG2TOX_HILL_SLOPE 8.32, HEPG2TOX_R_SQUARED 0.411, PBLUC_HILL_SLOPE 4.15, PBLUC_R_SQUARED 0.462, read-out: LUCIFERASE INFECTION ASSAY - IC50) is 5.22 µM.
In the case of `CCCn1c(=O)n(CC(=O)Nc2ccc(C)c(C)c2)c(=O)c2c1nc(C(F)(F)F)n2CCOC`, the IC90 is more than 10 µM. Further, the IC50 (PBLUC_HILL_SLOPE 0.949, PBLUC_R_SQUARED 0.63, read-out: LUCIFERASE INFECTION ASSAY - IC50) turned out to be 1.57 µM.
`Cc1ccc(CNC(=O)CN2CCCN(Cc3ccc(Cl)cc3)CC2)cc1F`: the IC90 is more than 10 µM. Also, the 50% inhibitory concentration (IC50) (HEPG2TOX_HILL_SLOPE 2.47, HEPG2TOX_R_SQUARED 0.19, PBLUC_HILL_SLOPE 1.42, PBLUC_R_SQUARED 0.29, read-out: LUCIFERASE INFECTION ASSAY - IC50) amounted to 4.84 µM.
Take `CCn1c(NC(=O)CCc2ccc3c(c2)OCCO3)nc2ccccc21`: the IC90 is more than 10 µM. Also, for the setting “PBLUC_HILL_SLOPE 14.7, PBLUC_R_SQUARED 0.597, read-out: LUCIFERASE INFECTION ASSAY - IC50”, the IC50 was 9.02 µM.
Regarding `O=c1c(NS(=O)(=O)c2ccc(Cl)cc2)cccn1Cc1ccc(Cl)c(Cl)c1`, the 90% effect concentration (IC90) was more than 7.44 µM. Besides, the IC50 under setting [1] is more than 7.44 µM.
Turning to `C=CCNC(=S)Nc1ccc(Oc2cc(C(F)(F)F)cc(C(F)(F)F)c2)cc1`, the concentration for an effect of 90% (IC90) came to 6.91 µM. Further, the IC50 under setting [1] turned out to be 3.04 µM.
Turning to `Cn1cccc1C(=O)Nc1nc(-c2ccccn2)cs1`, the IC90 is 4.04 µM. Also, the concentration for half-maximal inhibition (IC50) (HEPG2TOX_HILL_SLOPE 2.43, HEPG2TOX_R_SQUARED 0.643, PBLUC_HILL_SLOPE 14.5, PBLUC_R_SQUARED 0.519, read-out: LUCIFERASE INFECTION ASSAY - IC50) amounted to 3.47 µM.
Turning to `O=[N+]([O-])c1ccc(C(O)CNc2ccccc2S(=O)(=O)C(F)(F)F)cc1` (stereo not given), the IC90 stood at 1.21 µM. The IC50 (HEPG2TOX_HILL_SLOPE 1.62, HEPG2TOX_R_SQUARED 0.763, PBLUC_HILL_SLOPE 5.41, PBLUC_R_SQUARED 0.533, read-out: LUCIFERASE INFECTION ASSAY - IC50) came out at 0.807 µM.
For `COc1ccc(N2CCN(CCCNc3ncnc4cc(Cl)ccc34)CC2)cc1`, the IC90 was 3.54 µM. In addition, the IC50 (HEPG2TOX_HILL_SLOPE 6.44, HEPG2TOX_R_SQUARED 0.109, PBLUC_HILL_SLOPE 114, 20.9, PBLUC_R_SQUARED 0.138, 0.588, read-out: LUCIFERASE INFECTION ASSAY - IC50) stood at 3.33 µM.
Take `COc1ccc(CC(N)c2csc(NC(=O)C(c3ccccc3)c3ccccc3)n2)cc1` (stereo not given): the IC90 amounted to 5.8 µM. Further, the IC50 (HEPG2TOX_HILL_SLOPE 15.4, HEPG2TOX_R_SQUARED 0.86, PBLUC_HILL_SLOPE 4.59, PBLUC_R_SQUARED 0.756, read-out: LUCIFERASE INFECTION ASSAY - IC50) was found to be 3.59 µM.
For `O=C(Nc1ccc(Cl)cc1)Nc1ccccc1SCc1ncc(C(F)(F)F)cc1Cl`, the 90% effect concentration (IC90) was more than 6.99 µM. Besides, the half-maximal inhibitory concentration (IC50) (HEPG2TOX_HILL_SLOPE 7.43, HEPG2TOX_R_SQUARED 0.87, PBLUC_HILL_SLOPE 2.47, PBLUC_R_SQUARED 0.266, read-out: LUCIFERASE INFECTION ASSAY - IC50) stood at 4.63 µM.
Take `CCOc1ccc(C(C)=O)cc1COC(=O)c1cc(-c2cccc3ccccc23)nc2ccccc12`: the IC90 was more than 10 µM. Moreover, the IC50 (FFLUC_HILL_SLOPE 1.76, FFLUC_R_SQUARED 0.222, read-out: LUCIFERASE INFECTION ASSAY - IC50) was more than 10 µM.
Turning to `CC(C)N(C(=O)CN1CCN(c2ccccc2Cl)CC1)c1ccc(Nc2ccccc2)cc1`, the IC90 was more than 10 µM. In addition, the IC50 under setting [1] was determined as 4.84 µM.
For the compound `N#Cc1ccnc(N2CCN(C(=O)c3cccc(-n4cccc4)c3)CC2)c1`, the 90% effect concentration (IC90) turned out to be 2.2 µM. Moreover, for the setting “HEPG2TOX_HILL_SLOPE 1.62, HEPG2TOX_R_SQUARED 0.96, PBLUC_HILL_SLOPE 2.46, PBLUC_R_SQUARED 0.842, read-out: LUCIFERASE INFECTION ASSAY - IC50”, the IC50 came to 0.901 µM.
Consider `COc1cccc(CN2CCN3C=C(C(=O)Nc4ccc(Oc5ccccc5)cc4)OC3=NC2=O)c1`, for which the IC90 is more than 10 µM. Moreover, under setting [1], the IC50 was more than 10 µM.
As to `COc1cc(C(=O)c2c(N)c(C#N)cn3c2nc2ccccc23)cc(OC)c1OC`, the IC90 was 1.04 µM. The concentration for half-maximal inhibition (IC50) (HEPG2TOX_HILL_SLOPE 1.34, 0.970, HEPG2TOX_R_SQUARED 0.842, 0.883, PBLUC_HILL_SLOPE 1.49, PBLUC_R_SQUARED 0.764, read-out: LUCIFERASE INFECTION ASSAY - IC50) turned out to be 0.237 µM.
With `CCN1N=C(c2ccc(OC)cc2)c2ccc(OC)c3cccc1c23`, the IC90 was 8.69 µM. In addition, the IC50 (FFLUC_HILL_SLOPE 16.1, FFLUC_R_SQUARED 0.71, HEPG2TOX_HILL_SLOPE 5.83, HEPG2TOX_R_SQUARED 0.386, PBLUC_HILL_SLOPE 3.16, PBLUC_R_SQUARED 0.408, read-out: LUCIFERASE INFECTION ASSAY - IC50) worked out at 4.33 µM.
Regarding `O=C1CCN(Cc2ccc(Cl)cc2)N1`, the IC90 is more than 15.7 µM. The IC50 (PBLUC_HILL_SLOPE 1.7, PBLUC_R_SQUARED 0.276, read-out: LUCIFERASE INFECTION ASSAY - IC50) turned out to be 14.1 µM.
Take `Cc1c(Cl)cccc1N=C(SCC(=O)N(C)C1CCCCC1)C(C#N)c1nc2ccccc2s1` (stereo not given): the IC90 was more than 10 µM. Further, the IC50 under setting [1] is more than 10 µM.
As to `O=S(=O)(NCc1nnc2n1-c1ccccc1CC2)c1ccc(C2CCCCC2)cc1`, the 90% effect concentration (IC90) was more than 10 µM. Moreover, the IC50 under setting [1] is more than 10 µM.
For `COc1ccc(-c2ccnc3n[nH]c(-c4ccc5c(c4)OCO5)c23)cc1OC`, the IC90 is 4.36 µM. For the same compound, the IC50 (HEPG2TOX_HILL_SLOPE 5.74, HEPG2TOX_R_SQUARED 0.837, PBLUC_HILL_SLOPE 9.49, PBLUC_R_SQUARED 0.381, read-out: LUCIFERASE INFECTION ASSAY - IC50) stood at 3.46 µM.
Take `Cc1ccc(NC(=S)N/N=C2\C(=O)Nc3c(C)cc(C)cc32)c(C)c1`: the IC90 amounted to 3.68 µM. Further, the half-inhibitory concentration (IC50) under setting [1] was 3.03 µM.
`CC(C)(C)C(=O)/C=c1\[nH]c(=O)/c(=C/c2cc(F)cc3c2OCOC3)s1`: the IC90 was more than 10 µM. Also, under “PBLUC_HILL_SLOPE 2.84, PBLUC_R_SQUARED 0.665, read-out: LUCIFERASE INFECTION ASSAY - IC50”, the IC50 was found to be 6.37 µM.
In the case of `CC(=O)NCCc1ccc(C(=O)COC(=O)c2cc(C(C)C)cc(C(C)C)c2O)s1`, the IC90 was more than 10 µM. Moreover, the IC50 under setting [1] is more than 10 µM.
`CCOC(=O)Nc1nc2ccc(C(F)(F)F)cc2[nH]1`: the IC90 came out at 1.1 µM. Also, the IC50 (HEPG2TOX_HILL_SLOPE 0.892, HEPG2TOX_R_SQUARED 0.914, PBLUC_HILL_SLOPE 2.52, PBLUC_R_SQUARED 0.681, read-out: LUCIFERASE INFECTION ASSAY - IC50) turned out to be 0.459 µM.
For the compound `O=C(c1c[nH]nc1-c1ccccc1)N1CCN(S(=O)(=O)c2ccccc2)CC1`, the IC90 was more than 10 µM. The IC50 under setting [1] is more than 10 µM.
Turning to `CC1CCCCC1NC(=O)/C(C#N)=C/C=C/c1ccccc1[N+](=O)[O-]` (stereo not given), the concentration for an effect of 90% (IC90) is more than 10 µM. The IC50 (HEPG2TOX_HILL_SLOPE 14.8, 8.85, HEPG2TOX_R_SQUARED 0.251, 0.979, PBLUC_HILL_SLOPE 2.96, PBLUC_R_SQUARED 0.503, read-out: LUCIFERASE INFECTION ASSAY - IC50) amounted to 8.55 µM.
For the compound `CCCC(=O)Nc1ccc(C(=O)C(C)SC2=NN/C(=C3\C=Nc4ccccc43)N2c2ccc(OCC)cc2)cc1` (stereo not given), the 90% effect concentration (IC90) is more than 10 µM. Also, for the setting “PBLUC_HILL_SLOPE 9.99, PBLUC_R_SQUARED 0.53, read-out: LUCIFERASE INFECTION ASSAY - IC50”, the IC50 was determined as 8.08 µM.
Regarding `CNC(=O)c1ccc(/C=C/C(=O)c2ccc3cccc4c3c2CC4)cc1`, the IC90 is more than 10 µM. Also, under setting [1], the IC50 was more than 10 µM.
On to `Cc1ccccc1N1CCN(C(=O)c2ccc(Cl)c(S(=O)(=O)NCc3ccccc3)c2)CC1`, for which the IC90 is more than 10 µM. For the setting “HEPG2TOX_HILL_SLOPE 11.1, HEPG2TOX_R_SQUARED 0.861, PBLUC_HILL_SLOPE 8.51, PBLUC_R_SQUARED 0.104, read-out: LUCIFERASE INFECTION ASSAY - IC50”, the IC50 came to 9.26 µM.
For the compound `CC1CC(C)CN(c2nc3c(c(=O)[nH]c(=O)n3C)n2Cc2ccccc2F)C1` (stereo not given), the IC90 is more than 8.56 µM. Moreover, where the note is “PBLUC_HILL_SLOPE 14.3, PBLUC_R_SQUARED 0.575, read-out: LUCIFERASE INFECTION ASSAY - IC50”, the IC50 is 8.19 µM.
For the compound `COc1ccc([N+](=O)[O-])cc1C(=O)Nc1nc2c(s1)CCCCC2`, the IC90 worked out at 0.411 µM. Moreover, the IC50 (FFLUC_HILL_SLOPE 3.14, FFLUC_R_SQUARED 0.813, PBLUC_HILL_SLOPE 0.763, PBLUC_R_SQUARED 0.879, read-out: LUCIFERASE INFECTION ASSAY - IC50) was 0.0231 µM.

(Values after ChEMBL document CHEMBL4483862, “Open-source discovery of chemical leads for next-generation chemoprotective antimalarials” (2018).)
